Test results published in patent publication US9682985B2, “(Indazol-4-yl) hexahydropyrrolopyrrolones and methods of use” (AbbVie Inc., priority 2015, dated 2017).

What was measured:
[1] = molecular target: T1, recombinant human Nav1.7 (Homo sapiens, UniProt Q15858); assay: FRET-based membrane potential assay, Nav1.7; format: cell-based; conditions: HEK293 cells expressing recombinant human Nav1.7; veratridine + scorpion venom depolarization
T1 construct: expressed in transfected cells; host or cells: HEK293
T1 sequence (Q15858 whole entry): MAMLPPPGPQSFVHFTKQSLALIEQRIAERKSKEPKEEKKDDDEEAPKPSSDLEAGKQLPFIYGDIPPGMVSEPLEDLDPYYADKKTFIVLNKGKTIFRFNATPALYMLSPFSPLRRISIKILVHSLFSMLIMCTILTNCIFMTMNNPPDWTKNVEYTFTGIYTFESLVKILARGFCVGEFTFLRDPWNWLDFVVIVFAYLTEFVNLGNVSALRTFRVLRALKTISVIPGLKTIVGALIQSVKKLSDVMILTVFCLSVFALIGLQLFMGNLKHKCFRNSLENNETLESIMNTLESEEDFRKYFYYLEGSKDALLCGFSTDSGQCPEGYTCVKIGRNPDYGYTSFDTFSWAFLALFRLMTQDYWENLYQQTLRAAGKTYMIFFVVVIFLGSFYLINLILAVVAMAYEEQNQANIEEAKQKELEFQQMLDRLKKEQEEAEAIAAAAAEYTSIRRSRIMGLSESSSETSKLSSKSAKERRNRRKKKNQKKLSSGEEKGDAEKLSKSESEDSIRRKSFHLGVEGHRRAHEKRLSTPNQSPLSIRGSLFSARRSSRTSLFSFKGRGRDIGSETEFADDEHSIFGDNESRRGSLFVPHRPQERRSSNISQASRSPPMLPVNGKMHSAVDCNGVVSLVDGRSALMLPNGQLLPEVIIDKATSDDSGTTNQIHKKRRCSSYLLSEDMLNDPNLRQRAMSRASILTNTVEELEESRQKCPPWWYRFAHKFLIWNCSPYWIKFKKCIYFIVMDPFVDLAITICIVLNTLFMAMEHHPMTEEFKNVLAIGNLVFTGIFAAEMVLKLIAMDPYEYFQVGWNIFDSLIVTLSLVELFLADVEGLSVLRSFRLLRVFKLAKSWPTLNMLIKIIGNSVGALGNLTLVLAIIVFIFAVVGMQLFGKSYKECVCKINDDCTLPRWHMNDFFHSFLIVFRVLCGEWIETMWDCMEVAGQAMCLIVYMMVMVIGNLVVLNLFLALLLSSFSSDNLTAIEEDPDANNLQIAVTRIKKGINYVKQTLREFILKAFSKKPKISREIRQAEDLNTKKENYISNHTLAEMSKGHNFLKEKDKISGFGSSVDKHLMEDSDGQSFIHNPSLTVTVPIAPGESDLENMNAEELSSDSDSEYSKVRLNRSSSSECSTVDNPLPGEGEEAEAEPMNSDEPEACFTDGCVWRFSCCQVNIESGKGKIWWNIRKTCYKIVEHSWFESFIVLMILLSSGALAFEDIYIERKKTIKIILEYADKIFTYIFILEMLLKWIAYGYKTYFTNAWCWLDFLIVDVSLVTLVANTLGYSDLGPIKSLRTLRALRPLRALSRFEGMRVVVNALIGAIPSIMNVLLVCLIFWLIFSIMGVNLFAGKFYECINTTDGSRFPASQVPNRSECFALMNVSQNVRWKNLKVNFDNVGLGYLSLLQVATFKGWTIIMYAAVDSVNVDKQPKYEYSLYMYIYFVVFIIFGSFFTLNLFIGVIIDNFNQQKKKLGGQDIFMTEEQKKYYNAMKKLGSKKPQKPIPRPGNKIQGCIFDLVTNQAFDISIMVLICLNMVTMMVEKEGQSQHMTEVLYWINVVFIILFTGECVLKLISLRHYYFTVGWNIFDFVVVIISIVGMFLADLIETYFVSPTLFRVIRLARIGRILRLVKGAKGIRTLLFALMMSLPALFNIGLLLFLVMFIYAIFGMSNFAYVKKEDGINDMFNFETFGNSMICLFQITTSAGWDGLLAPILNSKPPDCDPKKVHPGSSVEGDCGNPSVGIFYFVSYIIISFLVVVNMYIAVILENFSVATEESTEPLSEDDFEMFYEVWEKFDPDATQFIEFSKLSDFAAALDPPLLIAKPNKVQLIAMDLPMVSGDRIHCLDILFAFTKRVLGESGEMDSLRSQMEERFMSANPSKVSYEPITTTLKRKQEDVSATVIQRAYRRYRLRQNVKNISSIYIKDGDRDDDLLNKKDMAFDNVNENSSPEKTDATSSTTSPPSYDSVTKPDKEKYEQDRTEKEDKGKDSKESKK

[2] = molecular target: T2, hERG channel (Kv11.1) (Homo sapiens, UniProt Q12809); assay: hERG QPatch screening protocol (hERG current block); format: cell-based; conditions: HEK-293 cells stably transfected with hERG; tail current; room temperature
T2 construct: W. January (Wisconsin Alumni Research Foundation); host or cells: HEK-293
T2 sequence (Q12809 whole entry): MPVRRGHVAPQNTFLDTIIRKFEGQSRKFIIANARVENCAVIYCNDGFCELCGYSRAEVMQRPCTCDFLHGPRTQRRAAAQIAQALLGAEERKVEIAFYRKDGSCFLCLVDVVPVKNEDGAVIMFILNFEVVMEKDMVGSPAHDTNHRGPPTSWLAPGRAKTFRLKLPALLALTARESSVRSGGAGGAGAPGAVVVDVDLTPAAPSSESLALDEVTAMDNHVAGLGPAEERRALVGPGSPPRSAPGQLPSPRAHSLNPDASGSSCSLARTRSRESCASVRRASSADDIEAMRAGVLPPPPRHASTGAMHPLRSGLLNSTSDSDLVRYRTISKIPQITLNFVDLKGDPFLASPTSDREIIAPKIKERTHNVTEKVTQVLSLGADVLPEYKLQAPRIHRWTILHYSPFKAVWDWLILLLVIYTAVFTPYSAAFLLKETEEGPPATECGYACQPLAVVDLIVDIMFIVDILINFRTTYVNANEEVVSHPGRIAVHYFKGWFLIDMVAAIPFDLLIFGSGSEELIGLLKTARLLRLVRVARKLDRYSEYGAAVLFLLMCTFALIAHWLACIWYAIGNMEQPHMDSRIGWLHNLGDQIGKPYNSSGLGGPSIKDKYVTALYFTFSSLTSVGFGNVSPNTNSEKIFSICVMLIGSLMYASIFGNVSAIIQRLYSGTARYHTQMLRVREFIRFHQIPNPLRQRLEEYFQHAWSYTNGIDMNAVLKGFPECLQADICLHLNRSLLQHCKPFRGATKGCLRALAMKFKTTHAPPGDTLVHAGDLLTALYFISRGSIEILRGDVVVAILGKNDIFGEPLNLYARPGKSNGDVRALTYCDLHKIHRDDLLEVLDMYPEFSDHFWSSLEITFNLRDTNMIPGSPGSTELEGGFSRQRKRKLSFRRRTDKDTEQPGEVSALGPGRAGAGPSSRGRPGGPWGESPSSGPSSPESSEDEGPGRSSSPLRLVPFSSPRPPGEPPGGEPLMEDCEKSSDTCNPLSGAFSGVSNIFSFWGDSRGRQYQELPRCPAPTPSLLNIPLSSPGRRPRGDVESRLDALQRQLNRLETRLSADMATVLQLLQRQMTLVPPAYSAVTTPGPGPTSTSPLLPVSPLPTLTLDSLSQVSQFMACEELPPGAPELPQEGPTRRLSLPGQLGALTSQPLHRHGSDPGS
Experimental: hERG QPatch Screening Protocol
Solutions and Compound Plates:
The bath solution contained (in mM): 140 NaCl, 5 KCl, 1 MgCl2, 2 CaCl2, 5 glucose, 20 HEPES, pH=7.4. The internal solution contained (in mM): 125 K-aspartate, 20 KCl, 10 EGTA, 5 MgATP, 1 MgCl2, 5 HEPES, pH=7.3.
Compound plates were prepared with an acoustic liquid handler (Echo® 550, Labcyte), using 384-well source plates and 96-well destination plates. Compounds were delivered to the destination plates as 300 nL spots in half-log increments (1, 3, 10 and 30 mM), dissolved in dimethyl sulfoxide. Plates were solvated with bath solution (300 μL) to final concentrations (1, 3, 10 and 30 μM; 0.1% dimethyl sulfoxide) and added to the QPatch workstation.
Cells and Cell Preparation:
Human embryonic kidney (HEK-293) cells, stably transfected with the hERG channel, were obtained from Dr. C. W. January (Wisconsin Alumni Research Foundation). Cells were initially maintained at 37° C. (5% CO2 atmosphere) in MEM supplemented media. Cells were cryo-preserved in 10% dimethyl sulfoxide, 90% fetal bovine serum at 10 M cells/mL. For electrophysiological studies, cells were thawed, resuspended in media at 1.0-1.5 M cells/mL and placed on the QPatch workstation.
QPatch Electrophysiology Workstation and Experimental Protocol:
Currents were recorded using QPatch HT (Sophion), an automated planar patch-clamp system. The QPatch uses forty-eight amplifiers and a 48-chamber QPlate positioned directly on top of the headstage. To obtain high resistant seals, cells are added to each chamber and allowed to settle for 10 seconds. Negative pressure is then applied to promote cell delivery to the patch chip openings on the chamber bottom. After formation of GΩ seals, negative pressure ramps are applied to obtain intracellular access. Access resistance was initially optimized by additional pressure ramps to assure the intracellular access was adequate for voltage clamp experiments (targeted access resistance <10 MΩ). Whole-cell compensation and series resistance compensation were used at 60% (both predicted and corrected). Experiments using QPatch were conducted at room temperature.
A single application of each concentration was applied to cells. During a five-minute wash-in period, a four-second depolarizing pulse to +20 mV, followed by a five-second repolarizing pulse to −50 mV was applied once every 15 seconds from a holding potential of −80 mV. Cells were exposed to four ascending concentrations of drug in half-log intervals.
Evaluation of hERG Current Block:
hERG tail current was measured as the difference in amplitude between a […] and the end of a five-second test pulse to −50 mV, preceded by a four-second pulse to +20 mV. The hERG IC50 values for compounds were determined from tail current analysis. The IC50 was calculated with a logistic fitting routine using the following equation: y=[(A1−A2)/(1+(x/IC50))^p]A2, where A1=initial×value, A2=final×value and p=power.

[3] = test system: MIA-induced osteoarthritic pain in rats; assay: Osteoarthritic (OA) pain induced by sodium monoiodoacetate (MIA), hind limb grip force; format: in vivo; conditions: rat MIA-OA, 20 days after MIA
Experimental: Osteoarthritic (OA) Pain Induced by Sodium Monoiodoacetate (MIA)
Pain behavior was assessed by measurement of hind limb grip force (GF) in adult osteoarthritic rats. Male Sprague Dawley rats, obtained from Charles River Laboratories, (Wilmington, Mass.), weighing 150-175 g, were injected in the unilateral knee join with a single intra-articular injection of sodium monoiodoacetate (MIA, 3 mg/rat). All rats were tested at 20 days following MIA injection. A behavioral measure of activity-induced pain was carried out. Measurements of the peak hind limb grip force were conducted by recording the maximum compressive force (CFmax), in grams of force, exerted on a hind limb strain gauge setup, in a commercially available grip force measurement system (Columbus Instruments, Columbus, Ohio).
During testing, each rat was gently restrained by grasping it around its rib cage and then allowed to grasp the wire mesh frame attached to the strain gauge. The experimenter then moved the animal in a rostral-to-caudal direction until the grip was broken. Each rat was sequentially tested twice at an approximately 2-3 minute interval to obtain a raw mean grip force (CFmax). This raw mean grip force data was in turn converted to a maximum hindlimb cumulative compressive force (CFmax), as the grams of force/kg of body weight, for each animal.
For evaluating the compound effects, the hind limb grip force was conducted 20 days following the intra-articular injection of MIA. A group of age-matched naïve (not injected with MIA) animals was added as a comparator to the drug-dosed groups. The vehicle control response for each group of MIA-treated animals was defined as the 0% response (0% effect), whereas the naïve control group was defined as the normal response and as 100% effect. The % effect for each dose group was expressed as % return of response to normalcy, compared to the naïve group. A percent maximal possible effect (% MPE) of testing compound was calculated according to the formula: (Treatment CFmax Vehicle CFmax)/Vehicle CFmax]×100). Higher % effect numbers indicate increased relief from the pain in the model, with 100% indicating a return to the level of response seen in normal (non-osteoarthritic) animals. All experiments evaluating drug effects in this model were conducted in a randomized blinded fashion.
The animals were housed in Association for Assessment and Accreditation of Laboratory Animal Care (AAALAC) approved facilities at AbbVie Inc. in a temperature-regulated environment under a controlled 12-hour light-dark cycle, with lights on at 6:00 a.m. Food and water were available ad libitum at all times except during testing. All testing was done following procedures outlined in protocols approved by AbbVie Inc.'s Institutional Animal Care and Use Committee.

[4] = test system: SNL-induced neuropathic pain in rats; assay: Rat spinal nerve ligation (SNL) model of neuropathic pain, paw withdrawal threshold; format: in vivo; conditions: SNL dose 100 mg/kg
Excerpt: Rat Spinal Nerve Ligation (SNL) Model of Neuropathic Pain.
A model of spinal nerve ligation-induced (SNL model) neuropathic pain as originally described by Kim and Chung (Kim, S. H. and J. M. Chung, 1992, Pain 50, 355) was used to test a compound of the present application. The male Sprague Dawley rats (Charles River Laboratories, Wilmington, Mass.), weighing 150-175 g at the time of surgery, were placed under isoflurane anesthesia and a 1.5 cm incision was made dorsal to the lumbosacral plexus. The paraspinal muscles (left side) were separated from the spinous processes, the left L5 and L6 spinal nerves isolated, and tightly ligated with 5-0 silk suture distal to the dorsal root ganglion. Care was taken to avoid ligating the L4 spinal nerve. Following spinal nerve ligation, a minimum of 7 days of recovery and no more than 3 weeks was allowed prior to the behavioral testing (mechanical sensitivity). Only rats with threshold scores ≦4.5 g were considered allodynic and utilized in pharmacological experiments.
Mechanical sensitivity was measured using calibrated von Frey filaments (Stoelting, Wood Dale, Ill.). Paw withdrawal threshold (PWT) was determined by using the Dixon's up-down method (Dixon, W. J., 1980, Ann. Rev. Pharmacol. Toxicol., 20, 441). Rats were placed into inverted individual plastic containers (20×12.5×20 cm) on top of a suspended wire mesh with a 1 cm^2 grid to provide access to the ventral side of the hind paws, and acclimated to the test chambers for 20 minutes. The von Frey filaments were presented perpendicularly to the plantar surface of the selected hind paw, and then held in this position for approximately 8 seconds with enough force to cause a slight bend in the filament. […] A 50% withdrawal threshold was determined using an up-down procedure (Dixon, 1980). A percent maximal possible effect (% MPE) of testing compound was calculated according to the formula: (Log [compound−treated threshold]−Log [vehicle−treated threshold])/(Log [maximum threshold]−Log [vehicle-treated threshold])×100%, where the maximum threshold was equal to 15 g. […]

[5] = molecular target: T3, recombinant human Nav1.8 (Homo sapiens, UniProt Q9Y5Y9); assay: FRET-based membrane potential assay, Nav1.8; format: cell-based; conditions: HEK293 cells expressing recombinant human Nav1.8; veratridine + scorpion venom depolarization
T3 construct: host or cells: HEK293
T3 sequence (Q9Y5Y9 whole entry): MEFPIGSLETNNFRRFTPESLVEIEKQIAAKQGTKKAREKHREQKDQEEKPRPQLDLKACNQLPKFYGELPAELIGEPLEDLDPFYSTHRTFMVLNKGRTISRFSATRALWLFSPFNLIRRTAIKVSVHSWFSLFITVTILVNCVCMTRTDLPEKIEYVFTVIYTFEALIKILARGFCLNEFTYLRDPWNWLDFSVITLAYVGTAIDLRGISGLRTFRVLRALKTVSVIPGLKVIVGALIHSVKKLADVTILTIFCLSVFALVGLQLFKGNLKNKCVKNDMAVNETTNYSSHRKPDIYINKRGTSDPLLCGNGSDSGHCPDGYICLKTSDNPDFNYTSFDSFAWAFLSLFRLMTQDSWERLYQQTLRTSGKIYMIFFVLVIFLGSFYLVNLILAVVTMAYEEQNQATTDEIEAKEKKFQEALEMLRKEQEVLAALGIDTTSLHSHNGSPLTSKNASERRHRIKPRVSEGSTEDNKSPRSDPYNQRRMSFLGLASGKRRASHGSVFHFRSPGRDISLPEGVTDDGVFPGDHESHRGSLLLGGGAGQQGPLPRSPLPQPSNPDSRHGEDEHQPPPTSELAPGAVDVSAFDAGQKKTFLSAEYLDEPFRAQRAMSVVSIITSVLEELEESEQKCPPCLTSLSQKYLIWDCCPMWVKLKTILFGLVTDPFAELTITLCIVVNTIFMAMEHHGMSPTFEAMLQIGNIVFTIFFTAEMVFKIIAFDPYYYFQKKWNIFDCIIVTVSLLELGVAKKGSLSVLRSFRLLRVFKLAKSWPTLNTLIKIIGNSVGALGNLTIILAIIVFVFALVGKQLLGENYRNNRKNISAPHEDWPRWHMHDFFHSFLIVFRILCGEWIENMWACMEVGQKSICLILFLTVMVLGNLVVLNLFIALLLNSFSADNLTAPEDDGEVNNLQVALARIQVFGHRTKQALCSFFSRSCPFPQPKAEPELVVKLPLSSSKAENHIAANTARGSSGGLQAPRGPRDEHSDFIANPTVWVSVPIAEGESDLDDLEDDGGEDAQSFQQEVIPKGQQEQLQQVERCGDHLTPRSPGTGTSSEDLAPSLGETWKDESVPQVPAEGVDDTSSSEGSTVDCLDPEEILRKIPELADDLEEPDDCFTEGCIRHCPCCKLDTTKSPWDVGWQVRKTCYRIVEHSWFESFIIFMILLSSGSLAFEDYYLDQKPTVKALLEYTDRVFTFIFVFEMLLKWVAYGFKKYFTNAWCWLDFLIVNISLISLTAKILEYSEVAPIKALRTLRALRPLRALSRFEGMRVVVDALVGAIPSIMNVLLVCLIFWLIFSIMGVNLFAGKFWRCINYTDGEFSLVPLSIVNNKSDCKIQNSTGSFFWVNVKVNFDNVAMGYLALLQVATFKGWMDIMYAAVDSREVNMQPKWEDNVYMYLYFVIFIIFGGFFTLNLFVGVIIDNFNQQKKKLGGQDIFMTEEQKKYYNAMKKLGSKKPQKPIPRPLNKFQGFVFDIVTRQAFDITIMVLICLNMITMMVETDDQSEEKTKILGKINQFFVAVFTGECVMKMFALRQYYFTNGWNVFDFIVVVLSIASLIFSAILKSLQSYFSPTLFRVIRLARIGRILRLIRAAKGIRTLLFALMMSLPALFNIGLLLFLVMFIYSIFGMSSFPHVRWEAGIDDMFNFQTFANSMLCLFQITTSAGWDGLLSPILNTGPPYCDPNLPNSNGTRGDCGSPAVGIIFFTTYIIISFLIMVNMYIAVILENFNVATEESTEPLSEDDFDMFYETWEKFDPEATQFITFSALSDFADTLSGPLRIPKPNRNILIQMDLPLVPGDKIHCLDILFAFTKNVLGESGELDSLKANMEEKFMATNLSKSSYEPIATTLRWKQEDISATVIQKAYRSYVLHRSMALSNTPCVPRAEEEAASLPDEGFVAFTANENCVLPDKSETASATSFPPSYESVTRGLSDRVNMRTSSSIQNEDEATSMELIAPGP

| SMILES | IC50 [1] [µM] | IC50 [2] [µM] | OA MPE ([3]; OA dose 10 mg/kg) [%] | SNL MPE [4] [%] | IC50 [5] [µM] | OA MPE ([3]; OA dose 30 mg/kg) [%] |
| --- | --- | --- | --- | --- | --- | --- |
| O=C(CC1CCCO1)N1C[C@@H]2CN(c3cccc4c3cnn4-c3ccccc3F)C(=O)[C@H]2C1 (relative stereo) [Example 10, rel-(3aR,6aR)-2-[1-(2-fluorophenyl)-1H-indazol-4-yl]-5-(tetrahydrofuran-2-ylacetyl)hexahydropyrrolo[3,4-c]pyrrol-1(2H)-one] | 2.07 | > 30 | 74 | 59 |  |  |
| CC(C)(O)CC(=O)N1CC[C@@H]2CN(c3cccc4c3cnn4-c3ccccc3F)C(=O)[C@@H]21 (single isomer, unassigned) [Example 1] |  | > 30 |  |  | 2.79 | 70 |
| CC(C)(O)CC(=O)N1CC[C@H]2CN(c3cccc4c3cnn4-c3ccccc3F)C(=O)[C@H]21 (single isomer, unassigned) [Example 2] |  | > 30 |  |  | 2.38 | 62 |
| CC(C)S(=O)(=O)N1C[C@@H]2CN(c3cccc4c3cnn4-c3ccccc3F)C(=O)[C@@H]2C1 [Example 24, (3aS,6aS)-2-[1-(2-fluorophenyl)-1H-indazol-4-yl]-5-(isopropylsulfonyl)hexahydropyrrolo[3,4-c]pyrrol-1 (2H)-one] | 1.98 | 17 | 66 |  | 0.59 |  |
| O=C(C1CCOC1)N1C[C@@H]2CN(c3cccc4c3cnn4-c3ccccc3F)C(=O)[C@@H]2C1 (stereo partly drawn) [Example 32, (3aR,6aS)-2-[1-(2-fluorophenyl)-1H-indazol-4-yl]-5-(tetrahydrofuran-3-ylcarbonyl)hexahydropyrrolo[3,4-c]pyrrol-1(2H)-one] | 1.69 | 7.43 | 9 |  |  |  |
| C[C@H](O)CC(=O)N1C[C@H]2CN(c3cccc4c3cnn4-c3ccccc3F)C(=O)[C@H]2C1 [Example 34, (3aS,6aR)-2-[1-(2-fluorophenyl)-1H-indazol-4-yl]-5-[(3S)-3-hydroxybutanoyl]hexahydropyrrolo[3,4-c]pyrrol-1(2H)-one] | 9.91 | > 30 |  | 60 | 8.36 | 85 |
| CC(C)(O)CC(=O)N1C[C@H]2CN(c3cccc4c3cnn4-c3ccccc3F)C(=O)[C@H]2C1 [Example 35, (3aS,6aR)-2-[1-(2-fluorophenyl)-1H-indazol-4-yl]-5-(3-hydroxy-3-methylbutanoyl)hexahydropyrrolo[3,4-c]pyrrol-1(2H)-one] |  |  |  | 40 |  | 99 |
